Test results published in patent publication US10889569B2, “Condensed ring group azacyclobutyl triazole derivative, preparation method therefor and use thereof in medicine” (Jiangsu Hengrui Medicine Co., Ltd., priority 2016, dated 2021).

Tests used:
[1] = Brain permeability of rats (Kp-unbound); assay type: in vivo; conditions: both sexes, rat, not told, po; SD rats, 10 mg/kg intragastrically, 0.5 h after administration; read-out: Kp-unbound (blood-brain permeability index)
Description: The activity of the compounds of the present invention on the brain permeability of rats was determined by the following experimental method:
Four SD rats (half male and half female) were maintained in a 12 hours light/12 hours dark cycle, in a constant temperature of 24±3° C. and a humidity of 50-60%, and free access to food and water. The compounds were administered intragastrically to the rats after fasting overnight. The administration dosage was 10 mg/kg. The administration group was sacrificed after blood collection at 0.5 h to 2 h after administration (blood volume: 0.5 ml). The blood sample was stored in heparinized tubes, and centrifuged for 10 minutes at 3500 rpm to separate the plasma, which was marked as plasma 1 and stored at […]. The animal was decapitated after sacrificing, and the brain tissue was collected. The residual blood in the brain tissue was sucked with a filter paper, which was marked as brain tissue 1, and stored at 0° C. ten minutes later. Another three animals were treated by the same method as that of administration group to obtain blank plasma and brain tissue 2.
The drug compounds were diluted to 50 mM with DMSO to obtain a stock solution I. An appropriate amount of stock solution I was diluted with methanol to obtain a diluted stock solution II (200 μM). 10 μl of stock solution II was moved to a 1.5 ml Eppendorf tube, and then added with 990 μl of blank plasma, and mixed well to obtain 2 μM of plasma sample 2 (concentration of DMSO≤0.2%), which was used for the determination of plasma protein binding rate at this concentration. […]
The equilibrium dialysis tube of RED Device Inserts was inserted into a 96-well plate. […] The chromatographic peak area ratios of the total drug (plasma chamber) and the free drug (buffer chamber) to the internal standard were determined directly by the LC/MS/MS method established above respectively, and the free percent (fu plasma %) was calculated.
Brain tissue protein binding equilibrium dialysis process: the blank brain tissue 2 was formulated into a blank brain homogenate with PBS (pH 7.4) according to a dilution factor of 11, and added with compound to formulate a 2 μM brain homogenate. Other procedures were the same with that of plasma protein binding, the chromatographic peak area ratios of the total drug (brain homo chamber) and the free drug (buffer chamber) to the internal standard were determined by the established LC/MS/MS method respectively, and the free percent (fu brain hom %) was calculated.
1) The drug concentrations in plasma 1 and brain tissue 1 of rats 0.5 h after administration were determined by the established LC/MS/MS method respectively, which were the total concentration (Ctotal, p and Ctotal, b); […]

human OTR = human OTR (Homo sapiens, UniProt P30559); assay: Inhibition activity on human OTR (Fluo-4 calcium assay, HEK293/human OTR stably transfected cells); assay type: cell-based; conditions: oxytocin 3 nM
Procedure, shortened: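 HEK293 cells stably expressing human OTR, loaded with Fluo-4 for 30 min at 37 °C, were preincubated 10 min at room temperature with compound (stocks 10^1–10^6 nM). Oxytocin (3 nM as added) then triggered calcium signal, read immediately at 494/516; IC50 fitted from fluorescence versus concentration.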

[2] = Pharmacokinetics assay in rats after intragastrical administration; assay type: in vivo, SD rats; conditions: Sprague-Dawley, rat, plasma, po, 30 mg/kg, intragastric, male rats
Description: Male SD rats were used as test animals. The drug concentration in plasma at different time points was determined by LC/MS/MS method after intragastrical administration of the compounds of Examples 2, 17, 34, 37, 38, 39 and 43 to rats. The pharmacokinetic behavior of the compounds of the present invention was studied and evaluated in rats.
Twenty-one healthy adult male Sprague-Dawley (SD) rats were purchased from Shanghai Jiesijie Laboratory Animal Co., LTD, with Certificate No.: SCXK (Shanghai) 2013-0006, and equally divided into 7 groups (3 rats per group).
A certain amount of the test compound was weighed, and added with 2.5% by volume of DMSO and 97.5% by volume of 10% solutol HS-15 to formulate a […] colorless, clear and transparent solution.
After an overnight fast, SD rats were administered intragastrically the test compounds at an administration dosage of 30.0 mg/kg and an administration volume of 10.0 mL/kg.
The rats were intragastrically administered the compounds of Examples 2, 17, 34, 37, 38, 39 and 43. 0.2 mL of blood was taken from the orbital sinus before administration and at 0.5, 1.0, 2.0, 4.0, 6.0, 8.0, 11.0 and 24.0 hours after administration. The samples were stored in heparinized tubes, and centrifuged for 10 minutes at 4° C. at 3500 rpm to separate the plasma. The plasma samples were stored at −20° C. The rats were fed 2 hours after administration.
The content of the test compounds in the plasma of rats after intragastrical administration of the test compounds at different concentrations was determined: 50 μL of rat plasma at each time after administration was taken, added with 50 μL of the internal standard solution of camptothecin (100 ng/mL) and 150 μL of acetonitrile, vortex-mixed for 5 minutes, and centrifuged for 10 minutes (4000 rpm). 3 μL of the supernatant was taken from the plasma samples for LC/MS/MS analysis.

oxytocin receptor [3] = target: T1, oxytocin receptor (Homo sapiens (Human), UniProt P30559); conditions: cited from earlier work
oxytocin receptor [4] = target: oxytocin receptor (Rattus norvegicus (Rat), UniProt P70536); conditions: intraventricular and intrathecal injection; cited from earlier work
oxytocin receptor [5] = target: T1, oxytocin receptor; conditions: orally 400 mg or 800 mg, patient with prospermia, phase II; cited from earlier work

T1 sequence (P30559 whole entry): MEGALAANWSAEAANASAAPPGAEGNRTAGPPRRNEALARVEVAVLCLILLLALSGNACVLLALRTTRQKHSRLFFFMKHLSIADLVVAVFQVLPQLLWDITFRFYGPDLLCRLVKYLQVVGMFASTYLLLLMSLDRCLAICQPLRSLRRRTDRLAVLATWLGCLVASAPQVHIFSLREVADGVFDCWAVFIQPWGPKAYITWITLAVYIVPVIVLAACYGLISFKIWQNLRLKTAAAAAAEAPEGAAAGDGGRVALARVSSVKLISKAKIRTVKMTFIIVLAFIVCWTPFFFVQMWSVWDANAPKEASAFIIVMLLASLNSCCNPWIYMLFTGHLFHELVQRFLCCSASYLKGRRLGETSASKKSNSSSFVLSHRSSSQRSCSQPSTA
Chain of oxytocin receptor (Rattus norvegicus (Rat), UniProt P70536) (P70536 whole entry): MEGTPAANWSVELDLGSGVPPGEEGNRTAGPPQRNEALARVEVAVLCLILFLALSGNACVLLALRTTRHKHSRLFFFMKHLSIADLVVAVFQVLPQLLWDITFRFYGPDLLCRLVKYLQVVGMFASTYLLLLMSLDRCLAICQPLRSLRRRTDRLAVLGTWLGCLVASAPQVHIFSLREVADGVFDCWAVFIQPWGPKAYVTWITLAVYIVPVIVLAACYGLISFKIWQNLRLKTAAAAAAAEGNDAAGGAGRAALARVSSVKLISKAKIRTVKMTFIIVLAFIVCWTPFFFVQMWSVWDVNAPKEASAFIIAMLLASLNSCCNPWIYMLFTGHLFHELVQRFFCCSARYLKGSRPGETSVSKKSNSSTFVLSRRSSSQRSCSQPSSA

COCc1nnc(N2CC(Oc3ccc(F)cc3Cl)C2)n1-c1ccc(OC)nc1 [5-(3-(3-(2-Chloro-4-fluorophenoxy)azetidin-1-yl)-5-(methoxymethyl)-4H-1,2,4-triazol-4-yl)-2-methoxypyridine, reference compound]
Kp at 0.5 h [1]: 0.064

COc1ccc(-n2c(COC(F)F)nnc2N2CC(c3cccc4cc(F)ccc34)C2)cn1 [Example 38, 5-(3-((Difluoromethoxy)methyl)-5-(3-(6-fluoronaphthalen-1-yl)azetidin-1-yl)-4H-1,2,4-triazol-4-yl)-2-methoxypyridine]
Kp at 0.5 h [1]: 0.175
IC50 (human OTR): 2 nM
Vd/F ([2]; read-out: Apparent distribution volume Vz/F): 27.8 ± 22.8 L/kg
AUC ([2]; read-out: Area under curve AUC): 5630 ± 3010 ng·h/mL
CL/F ([2]; read-out: Clearance CLz/F): 104 ± 44 mL/min/kg
half-life ([2]; read-out: Half-life T1/2 (converted)): 2.83 ± 1.9 h
Cmax ([2]; read-out: Plasma concentration Cmax): 1060 ± 270 ng/mL
MRT ([2]; read-out: Residence time MRT): 4.19 ± 1.25 h

CC[C@H](C)[C@@H]1C(=O)N[C@H](C2Cc3ccccc3C2)C(=O)N1[C@@H](C(=O)N1CCOCC1)c1ccc(C)nc1C [GSK557296]
Efficacy after oral administration in phase II clinical trials (oxytocin receptor [3]): did not show corresponding efficacy
Ejaculation behavior of rats (oxytocin receptor [4]): can effectively inhibit the ejaculation behavior of rats only when being administered at specific central sites

COCc1nnc(N2CC(Oc3ccc(F)cc3Cl)C2)n1-c1ccc(OC)nc1 [IX-01]
Vaginal ejaculation latency (oxytocin receptor [5]): can significantly prolong the vaginal ejaculation latency of the patient
